From ChEMBL document CHEMBL6127051, “Hydrazinecarboxamides: Comprehensive review of their anticancer, anticonvulsive, anti-inflammatory, enzyme inhibition, antioxidant and other activities” (Eur J Med Chem, 2024)
Values belong to the compound of their own block, whether it stands above or below them.

How the values were obtained:
MCF7 [1] = test: Antiproliferative activity against human MCF7 cells assessed as reduction in cell viability measured for 72 hrs by MTT assay; format: functional, cell-based; details: MCF7, 72 h
MCF7 [2] = test: Anticancer activity against human MCF7 cells assessed as reduction in cell growth measured after 3 days by MTT assay; format: functional, cell-based; details: MCF7, 72 h
A549 [3] = test: Antiproliferative activity against human A549 cells assessed as reduction in cell viability measured for 24 hrs by MTT assay; details: A549, 24 h
HepG2 [4] = test: Antiproliferative activity against human HepG2 cells assessed as reduction in cell viability measured for 24 hrs by MTT assay; details: HepG2, 24 h
[5] = target: T1, Retinoic acid receptor RXR-alpha (Homo sapiens, UniProt P19793); test: Antagonist activity at RXRalpha (unknown origin) by Alpha Screen assay
T1 sequence (P19793 whole entry): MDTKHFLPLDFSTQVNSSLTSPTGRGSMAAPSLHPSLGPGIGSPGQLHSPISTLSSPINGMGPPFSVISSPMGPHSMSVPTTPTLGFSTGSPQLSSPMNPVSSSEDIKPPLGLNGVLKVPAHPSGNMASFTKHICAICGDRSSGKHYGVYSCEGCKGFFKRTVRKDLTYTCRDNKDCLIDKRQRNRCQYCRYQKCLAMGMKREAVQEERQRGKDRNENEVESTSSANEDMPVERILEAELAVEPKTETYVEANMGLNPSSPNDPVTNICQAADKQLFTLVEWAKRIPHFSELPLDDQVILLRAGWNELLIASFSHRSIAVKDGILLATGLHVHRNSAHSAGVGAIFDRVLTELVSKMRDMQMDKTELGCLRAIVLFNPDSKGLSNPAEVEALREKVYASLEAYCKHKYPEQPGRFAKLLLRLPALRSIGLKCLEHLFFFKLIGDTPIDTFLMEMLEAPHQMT

A549 [6] = test: Antiproliferative activity against human A549 cells assessed as reduction in cell viability by MTT assay; format: functional, cell-based
A549 [7] = test: Antiproliferative activity against human A549 cells; format: functional, cell-based
MCF7 [8] = test: Antiproliferative activity against human MCF7 cells assessed as reduction in cell viability incubated for 72 hrs by MTT assay; format: functional, cell-based; details: MCF7, 72 h
Mus musculus [9] = test: Anticonvulsant activity in ip dosed scPTZ induced Kunming mouse seizure model; format: functional
Mus musculus [10] = test: Anticonvulsant activity in ip dosed MES induced Kunming mouse seizure model; format: functional
[11] = Antioxidant activity assessed as ABTS radical scavenging activity after 30 mins by spectrophotometric analysis; format: functional
MCF7 [12] = test: Cytotoxicity against human MCF7 cells assessed as reduction in cell growth; format: functional, cell-based
PC-3 = test: Anticancer activity against human PC-3 cells assessed as inhibition of cell growth at 3 uM incubated for 48 hrs by MTT assay relative to control; format: functional; design: scale not given: the % may be the effect or the level left
A549 [13] = test: Anticancer activity against human A549 cells assessed as inhibition of cell growth at 3 uM incubated for 48 hrs by MTT assay relative to control; format: functional; design: scale not given: the % may be the effect or the level left
[14] = Antioxidant activity assessed as DPPH radical scavenging activity at 10 ug/ml; format: functional; details: dose 10.0 µg/ml
MCF7 [15] = test: Antiproliferative activity against human MCF7 cells by MTT assay; format: functional, cell-based
NCI-H460 = test: Antiproliferative activity against human NCI-H460 cells by MTT assay; format: functional, cell-based
Mus musculus [16] = test: Anticonvulsant activity in po dosed scPTZ induced mouse model measured after 4 hrs; format: functional
[17] = Inhibition of Escherichia coli beta-glucuronidase
Cholinesterase = Cholinesterase (Equus caballus, UniProt P81908); test: Inhibition of equine serum BChE using butyrylthiocholine iodide as substrate measured after 15 mins by Ellman's method
Sequence of Cholinesterase (P81908 whole entry): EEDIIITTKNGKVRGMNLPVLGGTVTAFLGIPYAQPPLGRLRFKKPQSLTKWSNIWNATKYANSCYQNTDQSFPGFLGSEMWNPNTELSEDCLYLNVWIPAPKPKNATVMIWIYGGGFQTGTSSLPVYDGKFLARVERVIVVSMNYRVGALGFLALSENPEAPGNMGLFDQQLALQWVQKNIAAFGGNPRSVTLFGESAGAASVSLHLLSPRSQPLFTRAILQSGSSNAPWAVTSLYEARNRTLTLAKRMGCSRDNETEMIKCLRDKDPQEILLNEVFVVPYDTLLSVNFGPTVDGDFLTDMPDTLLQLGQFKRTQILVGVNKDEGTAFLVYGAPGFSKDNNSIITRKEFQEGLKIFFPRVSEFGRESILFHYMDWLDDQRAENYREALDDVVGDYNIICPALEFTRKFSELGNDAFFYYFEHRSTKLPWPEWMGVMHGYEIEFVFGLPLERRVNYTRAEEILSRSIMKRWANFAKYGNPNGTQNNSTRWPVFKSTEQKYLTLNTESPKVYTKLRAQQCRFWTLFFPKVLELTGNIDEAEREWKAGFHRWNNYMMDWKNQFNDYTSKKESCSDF

MCF7 [18] = test: Cytotoxicity against human MCF7 cells assessed as reduction in cell viability by MTT assay; format: functional, cell-based
HeLa = test: Cytotoxicity against human HeLa cells assessed as reduction in cell viability by MTT assay; format: functional, cell-based
HCT-116 = test: Cytotoxicity against human HCT-116 cells assessed as reduction in cell viability by MTT assay; format: functional, cell-based
HepG2 [19] = test: Cytotoxicity against human HepG2 cells assessed as reduction in cell viability by MTT assay; format: functional, cell-based

IC50 (MCF7 [1]): 1.2 µM
SMILES: O=C(NNC(=O)c1cc2ccccc2[nH]1)Nc1ccc(Cl)c(C(F)(F)F)c1

IC50 (MCF7 [2]): 0.03 µM
SMILES: COc1ccc(/C=C/C(=O)NNC(=O)NCCCC(C)Nc2cc(OC)cc3cccnc23)cc1 (stereo unspecified)

IC50 (A549 [3]): 8.39 µM
IC50 (HepG2 [4]): 2.17 µM
EC50 [5]: 1.05 µM
SMILES: CC(C)(C)NC(=O)NNC(=O)c1ccc(Nc2nccc(-c3ccncc3)n2)cc1

IC50 (A549 [6]): 4 µM
IC50 (A549 [7]): 1.5 µM
IC50 (MCF7 [8]): 1 µM
SMILES: COc1cc(NC(C)CCCNC(=O)NNC(=O)NC2CCCC2)c2ncccc2c1 (stereo unspecified)

IC50 (A549 [6]): 4 µM
IC50 (A549 [7]): 1.5 µM
IC50 (MCF7 [8]): 1 µM
SMILES: COc1cc(NC(C)CCCNC(=O)NNC(=O)NO)c2ncccc2c1 (stereo unspecified)

IC50 (MCF7 [2]): 0.03 µM
SMILES: COc1cc(NC(C)CCCNC(=O)NNC(=O)/C=C/c2ccc3c(c2)OCO3)c2ncccc2c1 (stereo unspecified)

SMILES: CCOC(=O)C1(NC(=O)NNS(=O)(=O)c2ccccc2Cl)CC1(C)C (stereo unspecified)
ED50 (Mus musculus [9]): 82.6 mg/kg
ED50 (Mus musculus [10]): 82.6 mg/kg

IC50 (A549 [6]): 4 µM
IC50 (A549 [7]): 1.5 µM
IC50 (MCF7 [8]): 1 µM
SMILES: COc1cc(NC(C)CCCNC(=O)NNC(=O)NOC(=O)c2ccccc2)c2ncccc2c1 (stereo unspecified)

SMILES: O=C(Cn1c(Cc2ccccc2)nc2ccccc21)NNC(=O)Nc1ccccc1
Activity [11]: 126%

SMILES: O=C(NNC(=O)n1nnc2ccccc21)NC(=O)c1ccccc1
IC50 (MCF7 [12]): 79 µM

SMILES: COc1ccc(C(C)(C)C)cc1NC(=O)NNC1=NS(=O)(=O)c2ccccc2N1c1ccccc1
Activity (PC-3): >=71%
Activity (A549 [13]): 99%

IC50 (A549 [3]): 8.39 µM
IC50 (HepG2 [4]): 2.17 µM
EC50 [5]: 1.05 µM
SMILES: CCCCNC(=O)NNC(=O)c1ccc(Nc2nccc(-c3ccncc3)n2)cc1

SMILES: O=C(NCCc1ccccc1)NNC(=O)n1nnc2ccccc21
IC50 (MCF7 [12]): 79 µM

SMILES: COc1cc(/C=C2\N=C(C)N(NC(=O)N3c4ccccc4C=Cc4ccccc43)C2=O)cc(OC)c1OC
Activity [14]: 73.9%

IC50 (A549 [6]): 4 µM
IC50 (A549 [7]): 1.5 µM
IC50 (MCF7 [8]): 1 µM
SMILES: COc1cc(NC(C)CCCNC(=O)NNC(=O)NC2CCCCC2)c2ncccc2c1 (stereo unspecified)

SMILES: COc1cc(C(=O)NN2C(=O)C(=O)N(Cc3ccccc3)C2=O)cc2c1OCCO2
ED50 (Mus musculus [10]): 13.7 mg/kg

IC50 (HepG2 [4]): 16.9 µM
SMILES: CNC(=O)c1cc(Oc2ccc(NC(=O)Nc3ccc(Cl)c(C(F)(F)F)c3)cc2)ccn1 [SORAFENIB]

IC50 (MCF7 [15]): 8.89 µM
IC50 (NCI-H460): 8.89 µM
SMILES: Cc1nc(-c2cccnc2)ccc1C(=O)NNC(=O)Nc1c(Cl)cc(Cl)cc1Cl

SMILES: CC1(C)CC12NC(=O)N(Nc1ccc(F)cc1)C2=O (stereo unspecified)
ED50 (Mus musculus [16]): 61.8 mg/kg

IC50 (A549 [3]): 8.39 µM
IC50 (HepG2 [4]): 2.17 µM
EC50 [5]: 1.05 µM
SMILES: O=C(NCCc1ccccc1)NNC(=O)c1ccc(Nc2nccc(-c3ccncc3)n2)cc1

IC50 [17]: 16.8 µM
SMILES: COc1ccc(CC(=O)NNC(=O)Nc2ccccc2OC)cc1

SMILES: CCOC(=O)C1(NC(=O)NNc2ccc(F)cc2)CC1(C)C (stereo unspecified)
ED50 (Mus musculus [9]): 9.2 mg/kg

IC50 (MCF7 [2]): 0.03 µM
SMILES: COc1cc(NC(C)CCCNC(=O)NNC(=O)/C=C/c2cc(OC)c(OC)c(OC)c2)c2ncccc2c1 (stereo unspecified)

IC50 (MCF7 [2]): 0.03 µM
SMILES: COc1cc(NC(C)CCCNC(=O)NNC(=O)/C=C/c2cc(C(F)(F)F)cc(C(F)(F)F)c2)c2ncccc2c1 (stereo unspecified)

IC50 (MCF7 [2]): 0.03 µM
SMILES: COc1cc(NC(C)CCCNC(=O)NNC(=O)/C=C/c2ccccc2)c2ncccc2c1 (stereo unspecified)

SMILES: O=C(NNC(=O)n1nnc2ccccc21)NC(c1ccccc1)c1ccccc1
IC50 (MCF7 [12]): 79 µM

SMILES: CCCCCCCCCCCCCCCNC(=O)NNC(=O)c1ccc(C(F)(F)F)cc1
IC50 (Cholinesterase): 58 µM

SMILES: CCOC(=O)C1(NC(=O)NNc2ccc(F)c(Cl)c2)CC1(C)C (stereo unspecified)
ED50 (Mus musculus [9]): 58.1 mg/kg

SMILES: O=C(NNC(=O)n1nnc2ccccc21)NOC(=O)c1ccccc1
IC50 (MCF7 [12]): 79 µM

SMILES: COc1cc(C(=O)NN2C(=O)C(=O)N(C(C)C)C2=O)cc2c1OCCO2
ED50 (Mus musculus [10]): 7.6 mg/kg

SMILES: Cc1c(C(=O)NNC(=O)Nc2ccc([N+](=O)[O-])cc2)nnn1Cc1nc2ccccc2[nH]1
IC50 (MCF7 [18]): 16.6 µM
IC50 (HeLa): 19.1 µM
IC50 (HCT-116): 32.8 µM
IC50 (HepG2 [19]): 25 µM
